From article PMC6909939, “Study on the Interactions Between Caffeoylquinic Acids With Bovine Serum Albumin: Spectroscopy, Antioxidant Activity, LC-MS^n, and Molecular Docking Approach” (Frontiers in Chemistry, 2019)
“And” between values parts separate entries of the source, which are not always exact repeats. Identical values can stand only once. Like-named read-outs stand apart in the source and are kept apart here. Blank lines part the entries; values can stand above or below the compound they belong to.

Columns and labels:
[1] = target: T1, bovine serum albumin (BSA) (Bos taurus, UniProt P02769); assay: Fluorescence quenching of BSA by CQAs (Stern-Volmer, double-log, Van't Hoff); type: binding; details: for ΔH / ΔS: 300-310 K; for Kd: read-out: Ka (converted); for λa-λj (shift of BSA fluorescence emission): CQA 0 to 5.0 × 10^−6 M
T1 construct: purchased AMRESCO
T1 sequence (P02769 25-607): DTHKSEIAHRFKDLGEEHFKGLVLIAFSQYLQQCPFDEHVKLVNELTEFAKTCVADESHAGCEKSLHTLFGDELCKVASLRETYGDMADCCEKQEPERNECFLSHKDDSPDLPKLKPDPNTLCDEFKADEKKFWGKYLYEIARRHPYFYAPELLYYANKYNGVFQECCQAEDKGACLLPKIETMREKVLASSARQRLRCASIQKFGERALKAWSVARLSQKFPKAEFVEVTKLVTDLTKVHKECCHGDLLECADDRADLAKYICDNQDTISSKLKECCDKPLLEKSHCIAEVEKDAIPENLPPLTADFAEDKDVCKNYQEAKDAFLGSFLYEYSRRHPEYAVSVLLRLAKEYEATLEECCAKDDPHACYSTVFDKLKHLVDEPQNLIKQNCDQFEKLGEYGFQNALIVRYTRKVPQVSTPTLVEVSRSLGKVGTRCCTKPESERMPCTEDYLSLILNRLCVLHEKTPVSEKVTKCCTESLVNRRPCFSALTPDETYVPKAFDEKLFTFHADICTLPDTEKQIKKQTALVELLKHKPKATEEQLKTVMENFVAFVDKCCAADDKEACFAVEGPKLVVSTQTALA
Protocol: Fluorescence analysis was determined with the LS-45 fluorophotometer (PerkinElmer, USA). […] The synchronous fluorescence spectrum was recorded at Δλ = 15/60 nm at 300 K. The concentration of BSA was set as 0.2 × 10^−6 M, and the concentrations of CQAs were set as 0~5.0 × 10^−6 M by successive additions. The 3D fluorescence spectrum of BSA (0.2 × 10^−6 M) and the BSA-drug (10:1 mol ratio of protein to ligand) complexes were determined at 200–350 nm in 5 nm increments, and the emission spectrum was set as between 200 and 500 nm.
Static and dynamic quenching were two kinds of quenching mechanisms. Both of them followed the equation of Stern-Volmer (Tang and Jia, [2013]): […]
where F0 and F were the fluorescence intensities of BSA with or without CQAs, respectively; KSV were the Stern-Volmer quenching constants; [Q] was the concentration of CQAs.
Binding constants and binding sites could be determined by double logarithmic curve equation (Hemmateenejad et al., [2012]):
(2) logF0-F/F=logKa+nlog[Q]
where F0 and F were the fluorescence intensities of BSA with or without CQAs, respectively; [Q] was the concentrations of CQAs; Ka was the binding constants and n was the number of binding sites.
The binding force between drugs and BSA was non-covalent interaction, like hydrogen-bond interaction, electrostatic forces, hydrophobic effects and Van der Waals forces (Cheng et al., [2015]). The binding parameters could be employed to determine the types of binding forces. The value of ΔH (enthalpy change) and ΔS (entropy changes) could be determined by Van't Hoff equation: […]
where Ka were the binding constants, R were the gas constants and T was the temperatures. Free energy changes (ΔG) could be determined by the following equation: […]

BSA = target: T2, BSA (Bos taurus, UniProt P02769); assay: CD measurement of BSA secondary structure (α-helix content); design: species or system bovine
T2 construct: purchased AMRESCO
T2 sequence (P02769 25-607): as above
Protocol: The J-815 automatic recording spectropolarimeter (Japan) equipped with 1.0 mm path length quartz cuvettes was employed to determine the CD spectrum of BSA and CQAs-BSA. All the CD spectra were recorded from 190 to 250 nm at 300 K, and the scanning speeds were all set as 50 nm·min^−1. The concentration of BSA and CQAs was 2.0 × 10^−6 and 10.0 × 10^−6 M, respectively. Each spectrum was scanned for successive three times and corrected by corresponding buffer solution.
Far-UV CD spectrum could monitor the secondary structures changes of BSA. To further study the interaction of CQAs and BSA and accurately detect the changes of the secondary structures of BSA, CD spectra of BSA was performed in with or without CQAs in different solvent systems.

bovine serum albumin = details: ref Li et al., 2010; cited from earlier work

Fluorescence quenching rate [1]: 40.14% and 32.93%
ΔG ([1]; H2O, 305 K): -8.535 kcal/mol
ΔG ([1]; H2O, 310 K): -8.05 kcal/mol
ΔG ([1]; PBS, 310 K): -8.081 kcal/mol
ΔG ([1]; Tris-HCl, 300 K): -9.498 kcal/mol
increase of α-helix content of BSA (BSA; Tris-HCl buffer): 5.15%
Compound: O=C(C=Cc1ccc(O)c(O)c1)OC1CC(O)(C(=O)O)CC(O)C1O (stereo not shown) [3-CQA, 3-O-caffeoylquinic acid]

Compound: O=C(C=Cc1ccc(O)c(O)c1)OC1C(O)CC(O)(C(=O)O)CC1O (stereo not shown) [4-CQA, 4-O-caffeoylquinic acid]
Fluorescence quenching rate ([1]; H2O): 30.99%
ΔH ([1]; H2O): -60.053 kcal/mol
ΔS ([1]; H2O): -705.46 J·mol^−1·k^−1
KSV ([1]; H2O, 300 K): 83600 L/mol
n (number of binding sites) ([1]; H2O, 300 K): 1.3458
ΔG ([1]; H2O, 300 K): -9.469 kcal/mol
Kd ([1]; H2O, 300 K): 173 nM
KSV ([1]; H2O, 305 K): 60500 L/mol
n (number of binding sites) ([1]; H2O, 305 K): 1.3177
ΔG ([1]; H2O, 305 K): -8.626 kcal/mol
Kd ([1]; H2O, 305 K): 347 nM
KSV ([1]; H2O, 310 K): 57700 L/mol
n (number of binding sites) ([1]; H2O, 310 K): 1.1102
ΔG ([1]; H2O, 310 K): -7.784 kcal/mol
Kd ([1]; H2O, 310 K): 4520 nM
λa-λj (shift of BSA fluorescence emission) ([1]; H2O): -5.5 nm
Fluorescence quenching rate ([1]; PBS): 22.65%
ΔH ([1]; PBS): -64.912 kcal/mol
ΔS ([1]; PBS): -774.09 J·mol^−1·k^−1
KSV ([1]; PBS, 300 K): 132900 L/mol
n (number of binding sites) ([1]; PBS, 300 K): 1.3138
ΔG ([1]; PBS, 300 K): -9.407 kcal/mol
Kd ([1]; PBS, 300 K): 175 nM
KSV ([1]; PBS, 305 K): 98000 L/mol
n (number of binding sites) ([1]; PBS, 305 K): 1.2398
ΔG ([1]; PBS, 305 K): -8.482 kcal/mol
Kd ([1]; PBS, 305 K): 532 nM
KSV ([1]; PBS, 310 K): 60000 L/mol
n (number of binding sites) ([1]; PBS, 310 K): 1.0835
ΔG ([1]; PBS, 310 K): -7.557 kcal/mol
Kd ([1]; PBS, 310 K): 5920 nM
λa-λj (shift of BSA fluorescence emission) ([1]; PBS): -4 nm
Fluorescence quenching rate ([1]; Tris-HCl): 35.83%
binding affinity change (times) when temperature rises from 300 to 310 K ([1]; Tris-HCl): 37.4
ΔH ([1]; Tris-HCl): -52.079 kcal/mol
ΔS ([1]; Tris-HCl): -588.56 J·mol^−1·k^−1
KSV ([1]; Tris-HCl, 300 K): 189400 L/mol
n (number of binding sites) ([1]; Tris-HCl, 300 K): 1.4214
ΔG ([1]; Tris-HCl, 300 K): -9.878 kcal/mol
Kd ([1]; Tris-HCl, 300 K): 30.1 nM
KSV ([1]; Tris-HCl, 305 K): 120400 L/mol
n (number of binding sites) ([1]; Tris-HCl, 305 K): 1.2871
ΔG ([1]; Tris-HCl, 305 K): -9.178 kcal/mol
Kd ([1]; Tris-HCl, 305 K): 238 nM
KSV ([1]; Tris-HCl, 310 K): 47100 L/mol
n (number of binding sites) ([1]; Tris-HCl, 310 K): 1.2434
ΔG ([1]; Tris-HCl, 310 K): -8.473 kcal/mol
Kd ([1]; Tris-HCl, 310 K): 1130 nM
λa-λj (shift of BSA fluorescence emission) ([1]; Tris-HCl): 3.5 nm
increase of α-helix content of BSA (BSA; H2O): 4.84%
increase of α-helix content of BSA (BSA; PBS buffer): 1.97%
increase of α-helix content of BSA (BSA; Tris-HCl buffer): 14.14%

Fluorescence quenching rate [1]: 35.34% and 32.09%
n (number of binding sites) [1]: 0.9251
ΔG ([1]; Tris-HCl, 300 K): -10.18 kcal/mol
ΔG ([1]; Tris-HCl, 305 K): -9.252 kcal/mol
ΔG ([1]; Tris-HCl, 310 K): -8.325 kcal/mol
increase of α-helix content of BSA (BSA; H2O): 0.69%
increase of α-helix content of BSA (BSA; PBS buffer): 0.08%
increase of α-helix content of BSA (BSA; Tris-HCl buffer): 8.16%
Compound: O=C(/C=C/c1ccc(O)c(O)c1)O[C@@H]1C[C@](O)(C(=O)O)C[C@@H](O)[C@H]1O [5-CQA, 5-O-caffeoylquinic acid]
binding constant (bovine serum albumin): higher than that of caffeic acid
